Results on three compounds are retold here after patent US7078059B2, “Treatment of bone diseases” (Shire Holdings AG, priority 2000, dated 2006).

Molecules are shown by their SMILES. Several values for one entry are separate records, joined by “and”; a condition that tells them apart may be missing. Equal values may be shown once. Entries after “also recorded” stand apart in the source; their conditions may differ.

For experiment [1], the system named is osteoclasts cultured on bone slices. The experiment is described as follows: In vitro bone resorption assay (osteoclasts on bovine bone slices, CrossLaps). The conditions noted are these: for Bone resorption: significance of activation/inhibition vs baseline; for Effect on bone resorption / bone resorbing activity of mature osteoclasts, in words / Relative medium CrossLaps amounts per osteoclast, Mean ± SD / Relative medium CrossLaps amounts per osteoclasts, Mean ± SD / Relative medium CrossLaps amounts per osteoclasts, replicates 1-6 / Combined results on bone resorption (relative medium CrossLaps per osteoclast), Mean ± SD: LA number = ng/ml lanthanum; for Effect on bone resorption / bone resorbing activity of mature osteoclasts, in words: lanthanum (III) ion = any of the concentrations tested (100-15000 ng/ml), bafilomycin Al 10 nM; for Relative medium CrossLaps amounts per osteoclast, replicates 1-6 / Relative medium CrossLaps amounts per osteoclast, Mean ± SD: first bone resorption assay; for Relative medium CrossLaps amounts per osteoclast, replicates 1-6 / Relative medium CrossLaps amounts per osteoclast, Mean ± SD / Relative medium CrossLaps amounts per osteoclasts, Mean ± SD / Relative medium CrossLaps amounts per osteoclasts, replicates 1-6: relative to mean of baseline group, 72 hours; for Relative medium CrossLaps amounts per osteoclast, replicates 1-6: LA number = ng/ml lanthanum in culture medium; for Relative medium CrossLaps amounts per osteoclast, replicates 1-6 / Relative medium CrossLaps amounts per osteoclast, Mean ± SD / Relative medium CrossLaps amounts per osteoclasts, Mean ± SD / Relative medium CrossLaps amounts per osteoclasts, replicates 1-6 / Combined results on bone resorption (relative medium CrossLaps per osteoclast), Mean ± SD: Control = Baseline+10 nM bafilomycin Al; for Relative medium CrossLaps amounts per osteoclasts, Mean ± SD / Relative medium CrossLaps amounts per osteoclasts, replicates 1-6: second bone resorption assay; for Combined results on bone resorption (relative medium CrossLaps per osteoclast), Mean ± SD: tables 1 and 2 combined, number 12. Type of experiment: cell-based, rat. An excerpt:
The method of osteoclast culture on bone slices was originally described by Boyde et al. (1984) and by Chambers et al. (1984). For cell culture, we used a method slightly modified from the original methods (Lakkakorpi et al. 1989, Lakkakorpi and Väänänen, 1991). The rate of bone resorption in the cultures was originally determined by counting the number of resorption pits on each bone or dentine slice using a microscope with phase contrast objectives (Sundquist et al. 1990). Later, the pits were visualized using Wheat Germ Agglutinin lectin that specifically binds to the resorbed area in bone (Selander et al. 1994), making it possible to quantify the total resorbed area using a microscope and computer-assisted image analysis system (Laitala and Väänänen 1994, Hentunen et al. 1995). We used a commercially available method (CrossLaps for cultures, Osteometer Biotech, Herlev, Denmark) to detect the amount of collagen cross-links released into the culture medium as an index of the bone resorption rate (Bagger et al., 1999).
The study protocol uses a method where osteoclasts are cultured on bone slices and allowed to resorb bone. The system is ideal for determining the effect of drug candidates on the bone resorbing activity of osteoclasts. Drug candidates are added into the cell cultures at the beginning of the culture period, and the osteoclasts allowed to resorb bone for 3 days. The amount of bone resorbed during the culture period is determined and compared to the amount of bone resorbed in control cultures (those cultured in the absence of drug candidates).
Transverse 0.1 mm thick slices of cortical bone were cut from the diaphysis of fresh bovine femurs (Atria Slaughterhouse, Oulu, Finland) using a low-speed diamond saw, cleaned by ultrasonication in multiple changes of sterile distilled water, and stored at 4° C. before use. Long bones were removed from 1-day-old rat pups killed by decapitation. […] The resulting suspension of dispersed cells and bone fragments was agitated using a plastic pipette. Larger fragments were allowed to sediment for a few seconds and the supernatant was seeded onto the bone slices pre-wetted in the medium. After a settling period of 30 minutes at 37° C., the bone slices were washed by dipping in fresh medium, and then transferred to wells in 24-well culture dishes containing osteoclast culture medium. The bone slices were incubated in a humidified atmosphere of 95% air and 5% carbon dioxide at 37° C. for 72 hours.
After the culture period, the amount of bone resorption was determined by measuring the amount of collagen cross-links released into the culture medium using a commercial kit (CrossLaps for cultures, Osteometer Biotech) according to the manufacturer s instructions. The number of osteoclasts in each culture was determined by microscopic counting of the amount of TRAP-positive multinuclear cells, and the results are given as the number of collagen cross-links released per one osteoclast.
In the bone resorption assay, the amount of medium CrossLaps (nM) released into the culture medium was determined and the number of osteoclasts in the corresponding cultures calculated. The medium CrossLaps amounts were divided with the osteoclast numbers in the corresponding cultures, and the results are given on Table 1 as relative medium CrossLaps amounts per osteoclasts. The relative values were obtained by dividing each individual value with the mean value of the baseline group.

The next experiment concerns mature osteoblasts. Briefly: In vitro bone formation assay (calcium deposition into bone nodules). The conditions noted are these: for Bone formation: significance of activation/inhibition vs baseline; for Effect on bone formation activity of mature osteoblasts, in words / Calcium deposition, Mean ± SD / Calcium deposition, replicates 1-6 / Calcium deposition, replicates 1-4 / Calcium deposition, replicates 1-8 / Combined results on bone formation activity of mature osteoblasts (calcium released), Mean ± SD: LA number = ng/ml lanthanum; for Effect on bone formation activity of mature osteoblasts, in words: lanthanum (III) / lanthanum (III) ion = all concentrations tested, 100 to 15,000 ng/ml, 17-estradiol 10^−10M; for Calcium deposition, Mean ± SD / Calcium deposition, replicates 1-6 / Calcium deposition, replicates 1-4 / Calcium deposition, replicates 1-8: calcium released from bone nodules after HCl extraction; for Calcium deposition, Mean ± SD / Calcium deposition, replicates 1-6 / Calcium deposition, replicates 1-4 / Calcium deposition, replicates 1-8 / Combined results on bone formation activity of mature osteoblasts (calcium released), Mean ± SD: Control = Baseline+10^−10M 17β-estradiol; for Combined results on bone formation activity of mature osteoblasts (calcium released), Mean ± SD: tables 13 and 14 combined, number 14. The class given is cell-based, mouse. How it is done: The activity of mature osteoblasts can be determined by quantifying their ability to form mineralized bone matrix. This is done by demineralizing the formed bone matrix, and determining the amount of calcium released. Thus, this culture system fulfills requirements of an in vitro model useful for studying the bone formation activity of mature osteoblasts. […] At the end of the culture, the amount of calcium deposited during the culture period was determined, and the amount of bone formation (calcium deposition) calculated. […] Extracts of 50 μl were complexed with 1 ml determined o-cresol-phthalein-complexon. The colorimetric reaction was determined at 570 nm in a spectrophotometer. Absolute calcium concentrations were determined by comparison with a calibrated standard provided by the vendor. In this study, the effect of lanthanum carbonate on bone formation was tested. […] The amount of bone formation was determined by measuring the amount of calcium deposited into bone nodules formed by mature osteoblasts. The results are shown as the amount of calcium released (mmol/L) from the bone nodules after HCl extraction. The baseline values are too low to show the results using relative amounts as was done in the other assays.

Another experiment concerns osteoclasts. The conditions noted are these: extracellular application; cited from earlier work.
Experiment [2] has as its system limb bud mesodermal cells. The conditions noted are these: organoid cultures; cited from earlier work.
The subject of experiment [3] is iliac crest of growing immature dogs. How it is done:
The specimens taken from the iliac crest of growing immature dogs were analysed. The group was divided into a control and treatment group. The treatment group received 1000 mg/Kg/day of lanthanum carbonate administered orally twice daily. The groups were run for 13 weeks, after which time samples of bone were taken vertically through the iliac crest, embedded in methyl methacrylate based resin, sectioned and stained with toluidine blue and Von Kossa stain.

Setting [4] is: preliminary bone formation assay.

Consider `O.O.O.O.O=C([O-])[O-].O=C([O-])[O-].O=C([O-])[O-].[La+3].[La+3]` [LA, lanthanum carbonate tetrahydrate], for which the “Effect on amount of CrossLaps released into the culture medium or on the osteoclast number, in words” value in experiment [1] (100-15000 ng/ml lanthanum) is “no significant effect”. For the same compound, the Bone resorption in experiment [1] (Dose 100 ng/ml), in experiment [1] (Dose 500 ng/ml), in experiment [1] (Dose 1000 ng/ml), in experiment [1] (Dose 5000 ng/ml) and in experiment [1] (Dose 15000 ng/ml) was 0 each time. In addition, the “Effect on bone resorption / bone resorbing activity of mature osteoclasts, in words” value in experiment [1] (listed as lanthanum) is “Some inhibition of bone resorption”; in experiment [1] (listed as lanthanum (III) ion), “no statistically significant effects”. Further, the Bone formation result in the experiment with mature osteoblasts (Dose 100 ng/ml) is “++ (two characters (++ or −−) a p-value between 0.01 and 0.001)”; with mature osteoblasts (Dose 500 ng/ml) it was “+++ (three characters (+++ or −−−) a p-value <0.001)”; in the experiment on mature osteoblasts (Dose 1000 ng/ml) it was “+++ (three characters (+++ or −−−) a p-value <0.001)”; in the experiment with mature osteoblasts (Dose 5000 ng/ml) it was “+++ (three characters (+++ or −−−) a p-value <0.001)”; in the experiment with mature osteoblasts (Dose 15000 ng/ml) it was “+++ (three characters (+++ or −−−) a p-value <0.001)”. Moreover, the figures for the “Effect on bone formation activity of mature osteoblasts, in words” value (from here on “Effect on bone formation activity”) in the experiment with mature osteoblasts (listed as lanthanum (III)) and with mature osteoblasts (listed as lanthanum (III) ion) were “Enhanced bone formation” and “highly significant activation; also recorded: powerful stimulator of the bone formation activity of mature osteoblasts”, respectively. Also, in the experiment on osteoclasts, the “Cytosolic calcium in osteoclasts” value is listed as “concentration-dependant elevation of cytosolic calcium”. Besides, the Calcium accumulation result in experiment [2] is listed as “reduced calcium accumulation”. Also, the Endochondral mineralization entry in experiment [2] was “inhibited endochondral mineralization”. Further, in experiment [3] (dose of 2,000 mg/kg/day lanthanum), the “Bone formation in growing dogs” value is on record as “enhanced bone formation”. The “Bone volume and density compared to control animals” value in experiment [3] (growing dogs, dose of 2,000 mg/kg/day lanthanum) is listed as “significant increase”. In addition, the “Other bone parameters investigated, treated vs control group” value in experiment [3] (growing immature dogs, 1000 mg/Kg/day of lanthanum carbonate orally twice daily, 13 weeks, iliac crest) is “no statistically significant difference”.

On to `O.O.O.O.O=C([O-])[O-].O=C([O-])[O-].O=C([O-])[O-].[La+3].[La+3]` [LA 1000, lanthanum carbonate tetrahydrate], for which, in experiment [1], the “Relative medium CrossLaps amounts per osteoclast, replicates 1-6” value is 1.14 and 1.09 and 0.89 and 1.76 and 1.07 and 1.11; the “Relative medium CrossLaps amounts per osteoclast, Mean ± SD” value amounted to 1.18 ± 0.30; the “Relative medium CrossLaps amounts per osteoclasts, Mean ± SD” value was 1.13 ± 0.51; the “Relative medium CrossLaps amounts per osteoclasts, replicates 1-6” value is 0.70 and 0.59 and 1.69 and 1.40 and 1.68 and 0.73. Moreover, the “Combined results on bone resorption (relative medium CrossLaps per osteoclast), Mean ± SD” value in experiment [1] was 1.15 ± 0.40. Besides, in the experiment with mature osteoblasts, the “Effect on bone formation activity” value is listed as “stimulate bone formation” and the “Combined results on bone formation activity of mature osteoblasts (calcium released), Mean ± SD” value stood at 1.20 ± 0.45 mmol/L. In the experiment on mature osteoblasts (first bone formation assay), the “Calcium deposition, Mean ± SD” value came to 1.29 ± 0.28 mmol/L; the “Calcium deposition, replicates 1-6” value is 0.95 mmol/L and 1.66 mmol/L and 1.47 mmol/L and 1.41 mmol/L and 1.00 mmol/L and 1.25 mmol/L. In the experiment with mature osteoblasts (setting [4]), the “Calcium deposition, Mean ± SD” value stood at 0.07 ± 0.05 mmol/L; the “Calcium deposition, replicates 1-4” value is 0.10 mmol/L and 0 mmol/L and 0.11 mmol/L and 0.05 mmol/L. Moreover, in the experiment on mature osteoblasts (second bone formation assay), the “Calcium deposition, Mean ± SD” value is given as 1.14 ± 0.55(* mmol/L; the “Calcium deposition, replicates 1-8” value was 1.76 mmol/L and 0.02 mmol/L and 1.52 mmol/L.

`O.O.O.O.O=C([O-])[O-].O=C([O-])[O-].O=C([O-])[O-].[La+3].[La+3]` [LA 100, lanthanum carbonate tetrahydrate]: in experiment [1], the “Relative medium CrossLaps amounts per osteoclast, replicates 1-6” value is 0.57 and 0.56 and 1.13 and 0.78 and 0.71 (2×); the “Relative medium CrossLaps amounts per osteoclast, Mean ± SD” value was 0.74 ± 0.21; the “Relative medium CrossLaps amounts per osteoclasts, Mean ± SD” value was 0.74 ± 0.21; the “Relative medium CrossLaps amounts per osteoclasts, replicates 1-6” value was 0.38 and 0.75 and 0.78 and 0.94 and 0.67 and 0.96. Moreover, in experiment [1], the “Combined results on bone resorption (relative medium CrossLaps per osteoclast), Mean ± SD” value was 0.74 ± 0.20. Moreover, in the experiment on mature osteoblasts, the “Effect on bone formation activity” value is “activate both bone formation and osteoblast differentiation”; the “Combined results on bone formation activity of mature osteoblasts (calcium released), Mean ± SD” value was 0.09 ± 0.10 mmol/L. Moreover, in the experiment on mature osteoblasts (first bone formation assay), the “Calcium deposition, Mean ± SD” value was determined as 0.11 ± 0.11 mmol/L; the “Calcium deposition, replicates 1-6” value was 0.04 mmol/L and 0.17 mmol/L and 0.01 mmol/L and 0.27 mmol/L and 0 mmol/L and 0.14 mmol/L. In the experiment on mature osteoblasts (setting [4]), the “Calcium deposition, Mean ± SD” value is given as 0.00 ± 0.00 mmol/L and the “Calcium deposition, replicates 1-4” value was found to be 0 mmol/L. Besides, in the experiment with mature osteoblasts (second bone formation assay), the “Calcium deposition, Mean ± SD” value stood at 0.08 ± 0.11 mmol/L; the “Calcium deposition, replicates 1-8” value was 0 mmol/L (4×) and 0.28 mmol/L and 0.14 mmol/L.
